The target of one data set is Histamine-H1 (Homo sapiens, UniProt P35367). The data set is described as follows: Receptor binding Histamine-H1. The note with it: radioligand [3H]-pyrilamine, read-out: Ki(nM) Compound 1. On the procedure: (§1) Receptor binding data were obtained by CEREP (128, rue Danton, 92500 Rueil-Malmaison, France) or at Solvay Pharmaceuticals B.V., using well documented standard procedures. Affinity for 5-HT1A receptors for instance, was determined by testing the ability of the compounds of the invention to displace [^3H]-2-(di-n-propylamino)-8-hydroxytetralin ([^3H]-8-OH-DPAT) from its specific binding sites in rat frontal cortex homogenates. This test is based on the method described by Gozlan et al. (Nature, 305, (1983), pages 140-142).
Chain of Histamine-H1 (P35367 whole entry): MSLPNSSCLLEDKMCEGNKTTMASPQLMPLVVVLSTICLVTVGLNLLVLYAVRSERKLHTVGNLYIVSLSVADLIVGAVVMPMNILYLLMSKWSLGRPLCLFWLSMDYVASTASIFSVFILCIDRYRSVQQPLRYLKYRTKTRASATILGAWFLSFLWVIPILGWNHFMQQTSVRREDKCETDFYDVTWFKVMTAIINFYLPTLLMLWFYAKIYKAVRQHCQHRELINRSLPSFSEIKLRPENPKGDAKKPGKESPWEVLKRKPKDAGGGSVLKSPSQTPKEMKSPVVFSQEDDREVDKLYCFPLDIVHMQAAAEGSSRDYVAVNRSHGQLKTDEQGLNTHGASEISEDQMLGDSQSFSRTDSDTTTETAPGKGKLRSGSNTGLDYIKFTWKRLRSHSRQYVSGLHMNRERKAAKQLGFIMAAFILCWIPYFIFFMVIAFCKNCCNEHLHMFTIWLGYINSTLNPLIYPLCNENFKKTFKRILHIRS
(§2) The binding data collected in the table below were either obtained by CEREP (128, rue Danton, 92500 Rueil-Malmaison, France) or at Solvay Pharmaceuticals B.V., using well documented standard procedures.

The subject of another data set is DBA/2 mice. The data set is described as follows: Interaction studies in DBA/2 mice: Compound 1 + vehicle, sumatriptan or SB 258741 (audiogenic seizures). The following applies: for Percentage of animal response, Clonic seizures / Percentage of animal response, Tonic extension: 30 min. It counts as in vivo. The method, then: The experiments are performed according to the method previously described by De Sarro et al. (1984), Eur. J. Pharmacol., 104, 55-60. Compounds of the invention or vehicle (controls) are given intraperitoneally (i.p.) and orally (p.o.) as freshly sonicated solutions in methylcellulose 1%. For the i.p. treatment compounds of the invention are given at doses of 0.1, 0.3, 3, 10, 15, 20 and 30 mg/kg; pretreatment time at 30 and 60 min., For oral treatment, all animals are pretreated either at 30 or 60 min using the compounds of the invention at doses of 0.1, 0.3, 3, 6 and 10 mg/kg p.o. At least 10 mice per dose are used. After pretreatment time, each mouse is placed under a hemispheric perspex dome (58 cm in diameter) and 1 min is allowed for habituation and assessment of locomotor activity. Animals are challenged with a 12-16 kHz sinusoidal tone at 109 dB. Seizure response is assessed by two independent observers. The sound evoked behaviour is coded using the following scale: 0=no response, 1=wild running, 2=clonus, 3=tonic flexor and/or extensor; 4=respiratory arrest, on the basis of the concordant opinion of the observers. […] The maximum response is recorded for each animal. Rectal temperature is recorded immediately prior to auditory testing using an Elektrolaboratoriet thermometer type T.E.3. Behavioral changes are observed during the period between drug administration and auditory testing. In these experiments separate vehicle-treated and drug-treated groups are used at each pretreatment time (15 min-60 min). Percentage of mice showing wild running, clonic or tonic phase and the duration of anticonvulsant activity are compared to control group and statistically analyzed.

The target in another data set is β3-adrenergic (Homo sapiens, UniProt P13945). The data set is described as follows: Receptor binding β3-adrenergic. The note with it: radioligand [125I]-iodocyanopindolol, read-out: Ki(nM) Compound 1. The method, then:
as §1, §2

A further data set has as its target LTB4 (Cavia porcellus, UniProt H0VYV8). The data set is described as follows: Receptor binding LTB4. The note with it: radioligand [3H]-LTB4; guinea pig; read-out: Ki(nM) Compound 1. The method, then: as §1, §2
Another data set has as its target μ-opiate (Rattus norvegicus, UniProt P33535). The data set is described as follows: Receptor binding μ-opiate. The note with it: radioligand [3H]-DAMGO, read-out: Ki(nM) Compound 1. On the procedure:
as §1, §2

For another data set, the target named is LTD4 (Cavia porcellus, UniProt Q2NNR5). Description: Receptor binding LTD4. The note with it: radioligand [3H]-LTD4; guinea pig; read-out: Ki(nM) Compound 1. The method, then: as §1, §2
Chain of LTD4 (Q2NNR5 whole entry): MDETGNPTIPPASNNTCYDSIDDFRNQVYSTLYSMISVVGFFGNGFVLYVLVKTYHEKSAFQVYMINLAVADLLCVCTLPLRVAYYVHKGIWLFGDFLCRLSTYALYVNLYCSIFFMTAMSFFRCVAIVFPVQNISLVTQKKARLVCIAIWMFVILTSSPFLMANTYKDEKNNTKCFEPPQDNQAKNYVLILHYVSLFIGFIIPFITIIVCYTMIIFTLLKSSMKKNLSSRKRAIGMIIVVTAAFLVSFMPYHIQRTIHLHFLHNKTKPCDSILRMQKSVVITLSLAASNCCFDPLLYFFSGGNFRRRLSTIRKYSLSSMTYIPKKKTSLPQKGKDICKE
The target of a further data set is Galanin-GAL1 (Homo sapiens, UniProt P47211). The data set is described as follows: Receptor binding Galanin-GAL1. The note with it: radioligand [125I]-galanin, read-out: Ki(nM) Compound 1. The method, then: as §1, §2
Chain of Galanin-GAL1 (P47211 whole entry): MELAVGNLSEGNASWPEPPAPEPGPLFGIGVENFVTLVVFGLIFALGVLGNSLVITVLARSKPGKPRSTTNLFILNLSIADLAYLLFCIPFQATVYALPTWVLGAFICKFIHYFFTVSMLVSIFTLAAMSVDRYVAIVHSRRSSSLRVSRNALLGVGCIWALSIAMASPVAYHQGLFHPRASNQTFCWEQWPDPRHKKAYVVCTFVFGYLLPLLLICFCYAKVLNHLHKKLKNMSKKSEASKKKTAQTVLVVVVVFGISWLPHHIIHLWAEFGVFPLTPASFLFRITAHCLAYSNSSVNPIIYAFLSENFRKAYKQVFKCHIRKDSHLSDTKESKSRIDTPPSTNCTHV
The next data set has as its target Adenosine-A1 (Homo sapiens, UniProt P30542). Description: Receptor binding Adenosine-A1. The following applies: radioligand [3H]-DPCPX, read-out: Ki(nM) Compound 1. On the procedure: as §1, §2
The target in the next data set is Dopamine-D1 (Homo sapiens, UniProt P21728). Description: Receptor binding Dopamine-D1. The following applies: radioligand [3H]-SCH 23390, read-out: Ki(nM) Compound 1. On the procedure:
as §1, §2

The mark [1] stands for this setting: dose of Compound 1 0.3 mg/kg i.p.
[2] abbreviates: dose of Compound 1 3 mg/kg i.p.
Where [3] appears, read: dose of Compound 1 10 mg/kg i.p.
[4] abbreviates: dose of Compound 1 15 mg/kg i.p.
Setting [5] is: dose of Compound 1 20 mg/kg i.p.

Chain of LTB4 (H0VYV8 1-348): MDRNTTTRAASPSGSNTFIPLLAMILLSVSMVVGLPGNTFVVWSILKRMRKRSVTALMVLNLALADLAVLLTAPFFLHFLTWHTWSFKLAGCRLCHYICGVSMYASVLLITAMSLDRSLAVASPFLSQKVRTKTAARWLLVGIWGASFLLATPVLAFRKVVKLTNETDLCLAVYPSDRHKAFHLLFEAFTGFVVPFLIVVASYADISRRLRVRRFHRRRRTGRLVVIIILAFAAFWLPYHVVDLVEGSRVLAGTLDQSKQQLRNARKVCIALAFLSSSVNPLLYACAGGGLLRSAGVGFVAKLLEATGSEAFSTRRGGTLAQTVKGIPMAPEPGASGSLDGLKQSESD
Chain of μ-opiate (P33535 whole entry): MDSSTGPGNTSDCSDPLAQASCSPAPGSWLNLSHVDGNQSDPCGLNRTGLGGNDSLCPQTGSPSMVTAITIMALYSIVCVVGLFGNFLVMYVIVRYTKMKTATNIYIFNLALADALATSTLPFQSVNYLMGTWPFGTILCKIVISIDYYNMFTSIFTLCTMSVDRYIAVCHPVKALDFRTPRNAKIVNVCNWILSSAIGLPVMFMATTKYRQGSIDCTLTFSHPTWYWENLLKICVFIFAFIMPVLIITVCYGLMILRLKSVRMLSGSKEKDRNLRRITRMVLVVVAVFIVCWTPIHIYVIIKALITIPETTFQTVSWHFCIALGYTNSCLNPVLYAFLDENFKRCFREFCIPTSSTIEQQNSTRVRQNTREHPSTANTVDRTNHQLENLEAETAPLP
Chain of β3-adrenergic (P13945 whole entry): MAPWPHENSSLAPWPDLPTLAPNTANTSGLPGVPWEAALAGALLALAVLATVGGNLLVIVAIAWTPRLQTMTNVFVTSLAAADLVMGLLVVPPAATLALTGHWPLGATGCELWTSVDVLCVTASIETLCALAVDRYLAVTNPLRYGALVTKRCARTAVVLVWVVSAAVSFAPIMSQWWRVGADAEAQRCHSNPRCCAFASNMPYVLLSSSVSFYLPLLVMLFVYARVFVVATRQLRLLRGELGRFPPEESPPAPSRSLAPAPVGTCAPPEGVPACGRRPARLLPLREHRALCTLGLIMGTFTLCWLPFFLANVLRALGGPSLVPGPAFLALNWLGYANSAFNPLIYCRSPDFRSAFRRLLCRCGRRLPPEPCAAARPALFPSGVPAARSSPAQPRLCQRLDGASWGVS
Chain of Dopamine-D1 (P21728 whole entry): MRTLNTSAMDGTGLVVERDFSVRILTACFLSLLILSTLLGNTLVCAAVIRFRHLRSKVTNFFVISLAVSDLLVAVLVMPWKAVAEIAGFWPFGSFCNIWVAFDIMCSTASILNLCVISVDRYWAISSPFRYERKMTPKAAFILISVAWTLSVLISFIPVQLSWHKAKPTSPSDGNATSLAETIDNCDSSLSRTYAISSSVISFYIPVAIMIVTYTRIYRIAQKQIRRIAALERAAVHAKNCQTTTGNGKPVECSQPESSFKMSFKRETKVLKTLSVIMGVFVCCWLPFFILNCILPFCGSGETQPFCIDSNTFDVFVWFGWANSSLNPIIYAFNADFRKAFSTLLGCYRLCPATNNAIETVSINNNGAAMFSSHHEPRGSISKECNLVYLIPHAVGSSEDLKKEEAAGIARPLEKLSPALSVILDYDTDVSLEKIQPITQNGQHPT
Chain of Adenosine-A1 (P30542 whole entry): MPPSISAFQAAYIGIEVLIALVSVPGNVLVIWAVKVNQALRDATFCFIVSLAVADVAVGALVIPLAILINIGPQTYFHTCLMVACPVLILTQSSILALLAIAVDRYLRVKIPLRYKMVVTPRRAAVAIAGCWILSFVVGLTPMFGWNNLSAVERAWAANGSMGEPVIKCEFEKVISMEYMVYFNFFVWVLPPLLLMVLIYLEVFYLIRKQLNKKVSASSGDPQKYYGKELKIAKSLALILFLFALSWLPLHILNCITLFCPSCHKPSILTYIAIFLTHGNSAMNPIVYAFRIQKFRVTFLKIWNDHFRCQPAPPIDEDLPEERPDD

In the case of `Nc1cc2cccc(N3CCNCC3)c2oc1=O` [Compound 1, 3-amino-8-(1-piperazinyl)-2H-1-benzopyran-2-one], the Ki on Histamine-H1 is more than 1000 nM; at β3-adrenergic it was more than 1000 nM; on LTB4, more than 10000 nM; at μ-opiate, more than 1000 nM; on LTD4, more than 10000 nM; on Galanin-GAL1 it was more than 1000 nM. In addition, the Ki at Adenosine-A1 and on Dopamine-D1 was more than 1000 nM in each case. For the same compound, the “Percentage of animal response, Clonic seizures” value worked out at 90% in the data set on DBA/2 mice (setting [1]); 80% in the data set on DBA/2 mice (setting [2]); 40% with DBA/2 mice (setting [3]); 20% with DBA/2 mice (setting [4]); 10% in the data set with DBA/2 mice (setting [5]). Further, the “Percentage of animal response, Tonic extension” value in the data set with DBA/2 mice (setting [1]) is 60%; in the data set on DBA/2 mice (setting [2]), 40%; in the data set with DBA/2 mice (setting [3]) it was 0%; in the data set with DBA/2 mice (setting [4]), 0%; in the data set on DBA/2 mice (setting [5]) it was 0%. Further, in the data set with DBA/2 mice (i.p., all dosages tested), the behavioural changes entry is listed as “At none of the dosages tested”.

As usually defined, the Ki is a measure of affinity in units of concentration, obtained from inhibition or displacement.

The record behind these values is patent US20050215551A1, “1-[2H-1-benzopyran-2-one-8-yl]- piperazine derivatives for the treatment of movement disorders” (SOLVAY PHARMACEUTICALS B.V., priority 2004, published 2005).
